Measured values from PubChem BioAssay AID464 (The Scripps Research Institute Molecular Screening Center, 2006).
Calls of active or inactive are those of the source.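 Rule for the calls: active = Compounds that kill half the cells at a concentration of 5 micromolar or below, from the fitted or estimated CC50; inactive = CC50 above 5 micromolar.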

System: Jurkat E6.1 viability, ATP luminescence, 48 h
Assay: Jurkat E6.1 cell cytotoxicity, CC50 determination, dose response, cytotoxicity control, ATP luminescence, 48 h, 60K MLSMR (AID 464)

Compound	CC50
Oc1c(CN2CCOCC2)cc(COCc2ccccc2)c2cccnc12	2.65 µM
CC(C)Cc1cc(C(=O)Nc2cc(Br)ccc2O)no1	> 40 µM (inactive)
CCCC(=O)Nc1nc2ccc(S(=O)(=O)N3CCCCC3)cc2s1	2.82 µM
CCOC(=O)CS(=O)(=O)c1nc(-c2ccccc2)cc(C(F)(F)F)n1	3.42 µM
Cc1ccc(Cl)cc1N1CCN(C(=O)COc2ccc(S(=O)(=O)NC(C)C)cc2)CC1	6.43 µM (inactive)
O=C(Nc1nnc(C2CC2)o1)c1ccc(S(=O)(=O)N2CCCc3ccccc32)cc1	22.9 µM (inactive)
Cc1c(C(=O)OCC(C)C)[nH]c2c1C(=O)CC(c1ccco1)C2 (stereo not given)	0.462 µM
COc1cc(C2=NOC(C(=O)NCc3ccco3)C2)cc(OC)c1OC (stereo not given)	2.21 µM
Oc1c(CN2CCN(c3ccccn3)CC2)cc(Cl)c2cccnc12	2.85 µM
CCn1c(-c2ccc(N(C)C)cc2)nc2ccccc21	5.93 µM (inactive)
COc1cccc(CNC(=O)c2cc3oc4ccccc4c3n2C)c1OC	> 40 µM (inactive)
CC(=O)c1ccc(Oc2cc(C)nc(-n3nc(C)cc3C)n2)cc1	0.293 µM
Cn1c(=O)n(C)c2cc(NS(=O)(=O)c3ccc4c(c3)CCCC4)ccc21	8.18 µM (inactive)
CC(=O)Nc1ccccc1N(C)S(=O)(=O)c1ccc(C)cc1	4.57 µM
CCCCCCn1ccc(=N)cc1	5.08 µM (inactive)
CN(C)c1ccc(-c2nn3c(-c4ccccc4Cl)nnc3s2)cc1	0.312 µM
O=C(Oc1ccc2c(c1)OCO2)c1cc2c(s1)CCC2	> 40 µM (inactive)
COCCOC(=O)c1[nH]c2c(c1C)C(=O)CC(c1ccco1)C2 (stereo not given)	0.945 µM
O=S1(=O)C=C(Sc2nc3ccccc3s2)c2ccccc21	0.647 µM
C=CS(=O)(=O)c1ccc(Oc2ccc(S(=O)(=O)C=C)cc2)cc1	1.9 µM
Cn1c(=O)oc2cc(S(=O)(=O)N3CCCc4ccccc43)ccc21	0.173 µM
Cn1c(=O)c2c(nc(NCc3ccco3)n2C/C=C/c2ccccc2)n(C)c1=O	9.36 µM (inactive)

Compound	CC50
O=S(=O)(NCc1ccncc1)c1ccc(Br)s1	1 µM
COc1cccc(C2C=C(c3ccc(OC)cc3OC)Nc3nnnn32)c1 (stereo not given)	18.4 µM (inactive)
CCOC(=O)CS(=O)(=O)c1nc(-c2ccc(F)cc2)cc(C(F)(F)F)n1	3.81 µM
COc1cccc(/C=N/n2c(SC)nnc2-c2ccccc2)c1O	10 µM (inactive)
CCCCNc1ncnc2c1cnn2-c1ccc(Cl)cc1	2.56 µM
COc1cc(C(Nc2ccccn2)c2ccc3ccc(C)nc3c2O)cc(OC)c1O (stereo not given)	6.78 µM (inactive)
CCCOc1ccc2ccccc2c1/C=N/n1c(C)nnc1-n1nc(C)cc1C	1.96 µM
O=C(Nc1nnc(-c2cccs2)o1)c1cccc(F)c1	21.7 µM (inactive)
CCN(CC)c1ccc(-c2nn3c(-c4n[nH]c5c4CCC5)nnc3s2)cc1	0.895 µM
Cn1cc(/C=N/n2cnc3scc(-c4ccc(Cl)cc4)c3c2=O)c2ccccc21	0.373 µM
Oc1c(C(Nc2nc3ccccc3s2)c2ccco2)ccc2cccnc12 (stereo not given)	7.79 µM (inactive)
CCCCC(=O)Nc1ccc(C(=O)NCCCn2ccnc2)cc1	> 4.4 µM (inactive)
CCCSc1nnc(Sc2nnnn2-c2ccccc2)s1	1.28 µM
Cc1cc(N2CCN(C/C=C/c3ccccc3)CC2)n2ncnc2n1	> 40 µM (inactive)
Cc1sc(NC(=O)c2ccco2)c(C(c2cccnc2)N2CCN(c3ccc(F)cc3)CC2)c1C (stereo not given)	> 40 µM (inactive)
N=c1c2c(n(Cc3ccc(Cl)cc3Cl)c3c1CCC3)CCCC2	2.26 µM
Nc1nonc1-c1nc2ccccc2n1Cc1ccccc1	6.41 µM (inactive)
Oc1ccc(-c2nc(-c3ccc(O)c(O)c3)cs2)cc1	0.167 µM
O=C(c1cc2c(s1)-c1ccccc1OC2)N1CCC2(CC1)OCCO2	6.1 µM (inactive)
CCN(Cc1ccncc1)S(=O)(=O)c1ccc(C(C)=O)cc1	9.44 µM (inactive)
Cc1cc(C)c2ccc(N)nc2c1O	6.83 µM (inactive)
CC(=O)c1cc2c(cc1NS(=O)(=O)c1ccc(C)cc1)OCCO2	5.05 µM (inactive)

Compound	CC50
COc1ccc(-c2n[nH]c(C)c2-c2ccc(OC)c(OC)c2)c(O)c1	> 4.4 µM (inactive)
CCOc1ccc2nc(-c3ccccc3)[nH]c2c1	3.01 µM
CSc1nc2nc3c(c(=O)n2[nH]1)CN(Cc1ccccc1)CC3	> 40 µM (inactive)
CCN(C1CCCCC1)S(=O)(=O)c1ccc(S(=O)(=O)NCc2ccncc2)cc1	5.32 µM (inactive)
Cc1cc(NC(=O)COC(=O)c2ccc(S(=O)(=O)N3CCCc4ccccc43)cc2)no1	2.16 µM
COC(=O)c1cc2ccsc2n1CC(=O)Nc1cc(Cl)ccc1OC	> 4.4 µM (inactive)
Cc1cc(NC(=O)CCCS(=O)(=O)c2nc(-c3cccs3)cc(C(F)(F)F)n2)no1	2 µM
c1ccc(-c2noc(-c3ccc4c(c3)OCO4)n2)nc1	2.75 µM
Cc1ccc(S(=O)(=O)NCc2ccncc2)cc1	2.87 µM
CCOC(=O)c1c(C)c(C(=O)Nc2ccc(N(C)C)cc2)c(C)n1CC	5.84 µM (inactive)
CCNc1nc2c(c(=O)n(C)c(=O)n2C)n1Cc1ccc(Cl)cc1	4.09 µM
c1ccc(-c2cccc(-c3ccccn3)n2)nc1	1.08 µM
COc1ccc(C(=O)n2c(-c3ccco3)nc3ccccc32)cc1	1.79 µM
CCCc1ccc(-c2ccc(F)c(N)c2)nc1	> 40 µM (inactive)
CCN=c1scc(-c2ccc3c(c2)NC(=O)CO3)n1N=C1CCCC1	8.47 µM (inactive)
N=c1ccn(Cc2ccc(Cl)c(Cl)c2)cc1	10.4 µM (inactive)
CSc1nnc2c3ccccc3n(CCc3ccccc3)c2n1	16.9 µM (inactive)
CCn1c2ccccc2c2cc(Nc3cc(C)nc4ncnn34)ccc21	0.109 µM
O=S(=O)(Nc1cccc2ncccc12)c1cccs1	6.36 µM (inactive)
COc1ccccc1NC(=O)Cc1nn(C)c(=O)c2ccccc12	3.35 µM
Cc1cc(C)nc(NC(=O)Nc2ccccc2C(F)(F)F)n1	> 4.4 µM (inactive)
COc1cccc(C(=O)/C=C/Nc2cc(C)ccc2O)c1	2.95 µM

Compound	CC50
CNc1nc(C)c(C(=O)OCc2ccccc2)s1	9.81 µM (inactive)
CCOc1ccccc1C1CC(=O)NC2=C1C(=O)CCC2 (stereo not given)	3.6 µM
Cc1cccc(N2CCN(C(=O)c3ccncc3)CC2)c1C	2.78 µM
Cc1cccc2cc3c(N)c(C(=O)N4CCOCC4)sc3nc12	0.95 µM
N=c1c2c(n(Cc3ccc(Cl)cc3)c3c1CCC3)CCC2	2.06 µM
CC(=O)N1CCc2c(sc(NC(=O)c3ccc4c(c3)OCCO4)c2C#N)C1	2.6 µM
CN(C)CC(C(=O)c1ccccc1)c1ccccc1 (stereo not given)	3.91 µM
c1ccc2c(c1)[nH]c1c(N3CCCC3)ncnc12	13.3 µM (inactive)
CCOC(=O)c1[nH]c(C)c(C(=O)Nc2ccccc2F)c1C	1.42 µM
CCCn1nc(C(=O)N2CC(=O)Nc3ccccc32)c2ccccc2c1=O	2.81 µM
O=C(Nc1ccncc1)C1CCCN(S(=O)(=O)c2cccc3cccnc23)C1 (stereo not given)	1.42 µM
O=S(=O)(CCSc1ccccn1)c1nc2ccccc2s1	11.8 µM (inactive)
N#Cc1c(NC(=O)CSc2nc(N)cc(=O)[nH]2)sc2c1CCCCCC2	6.25 µM (inactive)
Cc1ccc(C(=O)CCNc2ccc(F)c(Cl)c2)o1	6.26 µM (inactive)
Cc1cc(C(=O)CSc2nnc(NCc3ccccc3)s2)c(C)n1C	12.9 µM (inactive)
C=C(C)COc1ccc(-c2[nH]ncc2-c2ccc(OC)c(OC)c2)c(O)c1	0.782 µM
CS(=O)(=O)c1ncc(Cl)c(C(=O)Nc2ccc(N3CCOCC3)cc2)n1	2.61 µM
CCOC(=O)C1CCN(C(c2cccnc2)c2c(NC(=O)c3ccco3)sc(C)c2C)CC1 (stereo not given)	> 40 µM (inactive)
CC(=O)Nc1ccc(S(=O)(=O)N2CCCc3ccccc32)cc1	3.07 µM
CCOC(=O)NC1(Nc2ccc(Cl)cn2)Oc2ccccc2O1	12.5 µM (inactive)
CCCNc1nc2c(c(=O)n(C)c(=O)n2C)n1Cc1cccc(C)c1	10.8 µM (inactive)
CC(=O)Nc1ccc(S(=O)(=O)n2cnc3cc(C)c(C)cc32)cc1	24.8 µM (inactive)

Compound	CC50
Cn1c(SC2=CS(=O)(=O)c3ccccc32)nc2ccccc21	2.66 µM
O=C1C2C3C=CC(CO)(O3)C2C(=O)N1c1ccccc1-c1ccccc1 (stereo not given)	6.29 µM (inactive)
Cc1c(C(=O)OCC2CCCO2)[nH]c2c1C(=O)CC(c1ccco1)C2 (stereo not given)	2.6 µM
Clc1ccc(C2=Nn3c(nnc3-c3n[nH]c4c3CCC4)SC2)cc1	1.64 µM
COc1ccc(C(=O)CSc2nnc(Cn3cnc4ccccc43)o2)cc1	2.6 µM
CCN(CC)S(=O)(=O)c1cccc(C(=O)Nc2ccccc2)c1	18.3 µM (inactive)
CCOc1ccc(S(=O)(=O)Nc2cc(OC)ccc2OC)cc1	0.145 µM
CCOC(=O)N1CCN(CC(=O)Nc2c(C(=O)OC)[nH]c3ccc(Cl)cc23)CC1	> 40 µM (inactive)
CCN(CC)c1ccc2cc(-c3nc4ccccc4n3C)c(=O)oc2c1	0.32 µM
COCCOC(=O)c1[nH]c2c(c1C)C(=O)CC(c1ccc(F)cc1)C2 (stereo not given)	5.37 µM (inactive)
CCCOc1ccccc1C1CC(=O)Nc2cc3c(cc21)OCCO3 (stereo not given)	0.745 µM
Cc1ccc(S(=O)(=O)C2(S(=O)(=O)c3ccc(C)cc3)CCCC2)cc1	3.23 µM
CCOC(=O)c1[nH]c(C)c(C(=O)N2CCc3ccccc32)c1C	0.284 µM
CN(C)c1ccc(C(=O)c2ccc(N(C)C)c(N)c2)cc1N	8.53 µM (inactive)
O=C(CCn1c(=O)oc2ccccc21)N1CCN(c2ccccc2Cl)CC1	5.77 µM (inactive)
Cc1cc(C(=O)CSc2nnc(-c3cccc(F)c3)n2N)c(C)n1Cc1ccc2c(c1)OCO2	9.37 µM (inactive)
Cc1ccc(OCCN2CCN(C(=O)CCC(=O)Nc3nnc(C(C)C)s3)CC2)cc1	5.08 µM (inactive)
COc1ccc(-c2nc3cc(NC(=O)Cc4ccc(OC)c(OC)c4)ccc3o2)cc1	> 40 µM (inactive)
CN1Cc2cc(C(=O)c3cc(Cl)cc(CSc4ncccn4)c3O)cnc2NC1=O	0.212 µM
Cc1cccc(N2CCN(C(=O)c3ccc(CS(=O)(=O)c4ccccc4C)o3)CC2C)c1 (stereo not given)	0.785 µM
COc1ccccc1N1CCN(c2nc(C)nc3c2oc2ccccc23)CC1	1.04 µM
Cn1c(CN2CCOCC2)nc2cc(NC(=O)c3ccc(Cl)cc3)ccc21	1.26 µM
